Results from article PMC6378327, “Modes of Accessing Bicarbonate for the Regulation of Membrane Guanylate Cyclase (ROS-GC) in Retinal Rods and Cones” (eNeuro, 2019).

Biological target: T1, ROS-GC1 (Bos taurus, UniProt P55203)
T1 construct: gene GUCY2D; core catalytic domain, G817-Y965 (numbering for mature protein), homodimer
Assay: activation of purified recombinant core catalytic domain by […] bicarbonate, cGMP radioimmunoassay
Type: biochemical
Conditions: 30000 µM

T1 sequence (P55203 873-1021): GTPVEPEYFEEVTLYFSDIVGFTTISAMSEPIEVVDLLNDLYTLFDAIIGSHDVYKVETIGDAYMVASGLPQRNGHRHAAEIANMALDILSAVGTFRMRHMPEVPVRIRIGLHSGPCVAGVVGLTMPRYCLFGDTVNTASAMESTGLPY

O=C(O)O [bicarbonate]
activation of purified recombinant core catalytic domain by 30 mM bicarbonate, c: 3.4 fold activity at 30 mM
